Test system: Subjects With Active Crohn's Disease
Test: [HDL] determination, Study 5 (Crohn's disease)
Type: in vivo, human
Conditions: for [HDL] Mean CFB - 10 weeks results: 200 mg q.d.
Source text: Double-Blind, Randomized, Placebo-Controlled, Multi-Centre Study to Investigate the Efficacy and Safety of Compound 1 in Subjects With Active Crohn's Disease With Evidence of Mucosal Ulceration.
This is a double-blind, randomized, placebo-controlled, multi-centre Phase 2 study to investigate the efficacy and safety of Compound 1 administered once daily for the treatment of active CD with evidence of mucosal ulceration. The pharmacokinetics (including a PK substudy) and pharmacodynamics of Compound 1 and metabolite in CD will also be characterised.
A total of 180 eligible subjects will be randomized to receive Compound 1 or placebo in addition to their stable background treatment (eg, corticosteroids, aminosalicylates, or CD-related antibiotics). The study will consist of 2 parts, with total treatment duration of 20 weeks. Randomization in Part 1 will be stratified according the subject's previous anti-TNF exposure/response, CRP level at Screening, and oral corticosteroid use at visit Day −1.
After the first 10 weeks of treatment in Part 1, patients will be re-randomized for Part 2 as shown in the diagram below and will be stratified according to the subject's clinical response, previous anti-TNF exposure/response, and oral corticosteroid use at visit Day −1.
The following assays were conducted at Eurofins Global Central Laboratory, Bergschot 71, 4817 PA Breda, The Netherlands, and at Quest Diagnostics, Clinical Trials, Quest House, 125-135 Staines Road, Hounslow, Middlesex, TW3 3JB, United Kingdom. The assays for Study 5 were performed at BARC Europe, 3B, Industrie Park, Zwijnaarde, B-9052 Ghent, Belgium.
This assay relies on a homogeneous enzymatic colorimetric test. In the presence of magnesium ions, dextran sulfate selectively forms water-soluble complexes with LDL, VLDL and chylomicrons which are resistant to PEG-modified enzymes.
The cholesterol concentration of [HDL]-cholesterol is determined enzymatically by cholesterol esterase and cholesterol oxidase coupled with PEG to the amino groups (approx. 40%).
In the presence of peroxidase, the hydrogen peroxide generated reacts with 4-amino-antipyrine and Sodium N-(2-hydroxy-3-sulfopropyl)-3,5-dimethoxyaniline (HSDA) to form a purple-blue dye. The color intensity of this dye is directly proportional to the cholesterol concentration and is measured photometrically.
Human serum and plasma samples [HDL] determination was done on a Roche/Hitachi Cobas c 701/702 system which automatically calculate the analyte concentration of each sample. Samples containing precipitates are centrifuged before performing the assay.

[1] = 200 mg q.d. week 0 to 10, to 100 mg q.d. week 10 to 20, week 4
[2] = 200 mg q.d. week 0 to 10, to 100 mg q.d. week 10 to 20, week 6
[3] = 200 mg q.d. week 0 to 10, to 100 mg q.d. week 10 to 20, week 10
[4] = 200 mg q.d. week 0 to 10, to 100 mg q.d. week 10 to 20, week 12
[5] = 200 mg q.d. week 0 to 10, to 100 mg q.d. week 10 to 20, week 16
[6] = 200 mg q.d. week 0 to 10, to 100 mg q.d. week 10 to 20, week 20
[7] = 200 mg q.d. week 0 to 10, to placebo week 10 to 20, week 2
[8] = 200 mg q.d. week 0 to 10, to placebo week 10 to 20, week 4
[9] = 200 mg q.d. week 0 to 10, to placebo week 10 to 20, week 6
[10] = 200 mg q.d. week 0 to 10, to placebo week 10 to 20, week 10
[11] = 200 mg q.d. week 0 to 10, to placebo week 10 to 20, week 12
[12] = 200 mg q.d. week 0 to 10, to placebo week 10 to 20, week 16
[13] = 200 mg q.d. week 0 to 10, to placebo week 10 to 20, week 20
[14] = continued 200 mg q.d. (N = 77), week 2
[15] = continued 200 mg q.d. (N = 77), week 4
[16] = continued 200 mg q.d. (N = 77), week 6
[17] = continued 200 mg q.d. (N = 77), week 10
[18] = continued 200 mg q.d. (N = 77), week 12
[19] = continued 200 mg q.d. (N = 77), week 16
[20] = continued 200 mg q.d. (N = 77), week 20
[21] = placebo week 0 to 10, then 100 mg q.d. (N = 22), week 12
[22] = placebo week 0 to 10, then 100 mg q.d. (N = 22), week 16
[23] = placebo week 0 to 10, then 100 mg q.d. (N = 22), week 20
[24] = placebo week 0 to 10, to 100 mg q.d. week 10 to 20, week 12
[25] = placebo week 0 to 10, to 100 mg q.d. week 10 to 20, week 16
[26] = placebo week 0 to 10, to 100 mg q.d. week 10 to 20, week 20

Question: Which results are given for `O=C(Nc1nc2cccc(-c3ccc(CN4CCS(=O)(=O)CC4)cc3)n2n1)C1CC1` [Compound 1, cyclopropanecarboxylic acid {5-[4-(1,1-dioxo-thiomorpholin-4-ylmethyl)-phenyl]-[1,2,4]triazolo[1,5-a]pyridin-2yl}-amide]?
Answer: [HDL] Mean CFB - 20 weeks results [1]: 25.33%; [HDL] Median CFB - 10 weeks results [1]: 16.75%; [HDL] Mean CFB - 20 weeks results [2]: 25.93%; [HDL] Median CFB - 10 weeks results [2]: 23.04%; [HDL] Mean CFB - 20 weeks results [3]: 26.29%; [HDL] Median CFB - 10 weeks results [3]: 19.61%; [HDL] Mean CFB - 20 weeks results [4]: 14.27%; [HDL] Median CFB - 10 weeks results [4]: 10.66%; [HDL] Mean CFB - 20 weeks results [5]: 11.19%; [HDL] Median CFB - 10 weeks results [5]: 2.24%; [HDL] Mean CFB - 20 weeks results [6]: 15.54%; [HDL] Median CFB - 10 weeks results [6]: 10.18%; [HDL] Mean CFB - 20 weeks results [7]: 13.75%; [HDL] Median CFB - 10 weeks results [7]: 13.54%; [HDL] Mean CFB - 20 weeks results [8]: 23.62%; [HDL] Median CFB - 10 weeks results [8]: 27.96%; [HDL] Mean CFB - 20 weeks results [9]: 13.52%; [HDL] Median CFB - 10 weeks results [9]: 13.45%; [HDL] Mean CFB - 20 weeks results [10]: 14.87%; [HDL] Median CFB - 10 weeks results [10]: 15.66%; [HDL] Mean CFB - 20 weeks results [11]: −3.87%; [HDL] Median CFB - 10 weeks results [11]: −1.75%; [HDL] Mean CFB - 20 weeks results [12]: −7.46%; [HDL] Median CFB - 10 weeks results [12]: −3.07%; [HDL] Mean CFB - 20 weeks results [13]: −8.40%; [HDL] Median CFB - 10 weeks results [13]: −4.82%; [HDL] Mean CFB - 10 weeks results (week 2): 17.940%; [HDL] Mean CFB - 10 weeks results (week 4): 19.414%; [HDL] Mean CFB - 10 weeks results (week 6): 20.199%; [HDL] Mean CFB - 10 weeks results (week 10): 19.734%; [HDL] Mean CFB - 20 weeks results [14]: 0.23 mmol/L; [HDL] Median CFB - 20 weeks results [14]: 0.21 mmol/L; [HDL] Mean CFB - 20 weeks results [15]: 0.18 mmol/L; [HDL] Median CFB - 20 weeks results [15]: 0.16 mmol/L; [HDL] Mean CFB - 20 weeks results [16]: 0.24 mmol/L; [HDL] Median CFB - 20 weeks results [16]: 0.21 mmol/L; [HDL] Mean CFB - 20 weeks results [17]: 0.22 mmol/L; [HDL] Median CFB - 20 weeks results [17]: 0.25 mmol/L; [HDL] Mean CFB - 20 weeks results [18]: 0.20 mmol/L; [HDL] Median CFB - 20 weeks results [18]: 0.15 mmol/L; [HDL] Mean CFB - 20 weeks results [19]: 0.17 mmol/L; [HDL] Median CFB - 20 weeks results [19]: 0.20 mmol/L; [HDL] Mean CFB - 20 weeks results [20]: 0.10 mmol/L; [HDL] Median CFB - 20 weeks results [20]: 0.15 mmol/L; [HDL] Mean CFB - 20 weeks results [21]: 0.03 mmol/L; [HDL] Median CFB - 20 weeks results [21]: 0.12 mmol/L; [HDL] Mean CFB - 20 weeks results [22]: 0.09 mmol/L; [HDL] Median CFB - 20 weeks results [22]: 0.12 mmol/L; [HDL] Mean CFB - 20 weeks results [23]: 0.00 mmol/L; [HDL] Median CFB - 20 weeks results [23]: 0.10 mmol/L; [HDL] Mean CFB - 20 weeks results [24]: 5.75%; [HDL] Median CFB - 10 weeks results [24]: 8.64%; [HDL] Mean CFB - 20 weeks results [25]: 10.06%; [HDL] Median CFB - 10 weeks results [25]: 8.63%; [HDL] Mean CFB - 20 weeks results [26]: 3.77%; [HDL] Median CFB - 10 weeks results [26]: 11.27%

Source: patent publication US10376520B2, “Methods for the treatment of cardiovascular disorders” (Galapagos NV, priority 2015, dated 2019)
